Assay results reported in patent US20060069132A1, “Azolecarboxamide herbicides” (priority 2004, published 2006).

Columns and labels:
[1] = test system: lambsquarters; assay: Test B pre-/postemergence herbicide test; type: in vivo, Chenopodium album; settings: for Lambsquarters plant response rating: postemergence
How it was run: (§1)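 Evaluation is visual, comparing treated with control plants on a scale where 0 means no effect and 100 means full control. Treatments were preemergence, or postemergence on seedlings 2–18 cm tall, and held 13–15 days in the greenhouse.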

[2] = test system: morningglory; assay: Test A pre-/postemergence herbicide test; type: in vivo, Ipomoea spp.
How it was run: (§2)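 Greenhouse injury scoring (0–100, complete control = 100) at approximately ten days follows simultaneous pre- and postemergence application. Soil received a directed spray after seeding; seedlings of 2–10 cm at the one- to two-leaf stage were sprayed to runoff.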

[3] = test system: barnyardgrass; assay: Test A pre-/postemergence herbicide test; type: in vivo, Echinochloa crus-galli
How it was run: as §2

[4] = test system: rice; assay: Test B flooded paddy test; type: in vivo, Oryza sativa; settings: 1000 g ai/ha, scale 0 to 100 (0 no effect, 100 complete control)
How it was run: (§3)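 Each value is a visual 0–100 response rating taken against controls 13 to 15 days after treatment in the greenhouse. Plants received formulated chemical postemergence at the 1- to 4-leaf stage or, in flooded paddy, at the 2-leaf stage.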

[5] = test system: corn; assay: Test B pre-/postemergence herbicide test; type: in vivo, Zea mays; settings: for Corn plant response rating: postemergence
How it was run: as §1

[6] = test system: cocklebur; assay: Test B pre-/postemergence herbicide test; type: in vivo, Xanthium strumarium; settings: for Cocklebur plant response rating: postemergence
How it was run: (§4)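 Greenhouse pot assay with simultaneous preemergence (treated seed) and postemergence (2–18 cm seedlings) applications of surfactant-containing, non-phytotoxic solvent formulations. Response scored visually 13–15 days later on a 0–100 scale, 100 meaning complete control.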

[7] = test system: rice; assay: Test B pre-/postemergence herbicide test; type: in vivo, Oryza sativa; settings: 0 = no effect, 100 = complete control, preemergence
How it was run: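 Plants compared with untreated controls 13–15 days post-treatment and given a visual 0–100 injury score. Applications: preemergence to seeds; postemergence at 1- to 4-leaf (2–18 cm); paddy species flooded, 2-leaf stage. Vehicle non-phytotoxic, surfactant included.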

[8] = test system: velvetleaf; assay: Test B pre-/postemergence herbicide test; type: in vivo, Abutilon theophrasti; settings: for Velvetleaf plant response rating: postemergence
How it was run: as §1

[9] = test system: small flower umbrella sedge; assay: Test B flooded paddy test; type: in vivo, Cyperus difformis; settings: 1000 g ai/ha, scale 0 to 100 (0 no effect, 100 complete control)
How it was run: (§5)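 Greenhouse test; postemergence application to plants at 1–4 leaves (2–18 cm); paddy species at 2 leaves; evaluated visually vs controls at 13–15 days; scale 0–100 (100 = complete control).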

[10] = test system: Surinam grass; assay: Test B pre-/postemergence herbicide test; type: in vivo, Urochloa decumbens; settings: for Surinam Grass plant response rating: postemergence
How it was run: as §1

[11] = test system: pigweed; assay: Test B pre-/postemergence herbicide test; type: in vivo, Amaranthus retroflexus; settings: for Pigweed plant response rating: postemergence
How it was run: as §1

[12] = test system: large crabgrass; assay: Test A pre-/postemergence herbicide test; type: in vivo, Digitaria sanguinalis
How it was run: as §2

[13] = test system: wheat; assay: Test B postemergence herbicide test; type: in vivo, Triticum aestivum; set-up: key to Wheat plant response rating: 0 = no effect, 100 = complete control; settings: postemergence
How it was run: as §3

[14] = test system: barnyardgrass; assay: Test B pre-/postemergence herbicide test; type: in vivo, Echinochloa crus-galli; settings: for Barnyardgrass plant response rating: postemergence
How it was run: as §4

[15] = test system: giant foxtail; assay: Test B pre-/postemergence herbicide test; type: in vivo, Setaria faberi; settings: for Foxtail, Giant plant response rating: postemergence
How it was run: as §1

[16] = test system: blackgrass; assay: Test B postemergence herbicide test; type: in vivo, Alopecurus myosuroides; settings: postemergence
How it was run: as §5

[17] = test system: morningglory; assay: Test B pre-/postemergence herbicide test; type: in vivo, Ipomoea coccinea; settings: for Morningglory plant response rating: postemergence
How it was run: as §4

[18] = test system: velvetleaf; assay: Test A pre-/postemergence herbicide test; type: in vivo, Abutilon theophrasti
How it was run: as §2

[19] = test system: large crabgrass; assay: Test B pre-/postemergence herbicide test; type: in vivo, Digitaria sanguinalis; settings: for Crabgrass, Large plant response rating: postemergence
How it was run: as §1

[20] = test system: redroot pigweed; assay: Test A pre-/postemergence herbicide test; type: in vivo, Amaranthus retroflexus
How it was run: as §2

[21] = test system: ducksalad; assay: Test B flooded paddy test; type: in vivo, Heteranthera limosa; settings: 1000 g ai/ha, scale 0 to 100 (0 no effect, 100 complete control)
How it was run: as §5

[22] = test system: giant foxtail; assay: Test A pre-/postemergence herbicide test; type: in vivo, Setaria faberi
How it was run: as §2

[23] = test system: barnyardgrass; assay: Test B flooded paddy test; type: in vivo, Echinochloa crus-galli; settings: 1000 g ai/ha, scale 0 to 100 (0 no effect, 100 complete control)
How it was run: as §5

[24] = test system: wild oat; assay: Test B postemergence herbicide test; type: in vivo, Avena fatua; settings: postemergence
How it was run: as §3

[25] = 125 g ai/ha, 0 = no effect, 100 = complete control, preemergence
[26] = 500 g ai/ha, visual rating, 0 = no effect, 100 = complete control, preemergence
[27] = 125 g ai/ha, visual rating, scale 0 (no effect) to 100 (complete control)
[28] = 500 g ai/ha, scale 0 to 100, 0 is no effect, 100 is complete control
[29] = Postemergence, 500 g ai/ha, 0 to 100 scale, 0 no effect, 100 complete control
[30] = Postemergence, 2000 g ai/ha, 0 to 100 scale, 0 no effect, 100 complete control
[31] = Preemergence, 2000 g ai/ha, visual rating, 0 to 100 scale (0 no effect, 100 complete control)
[32] = preemergence, 500 g ai/ha, visual injury, 0 to 100 scale (0 no effect, 100 complete control)

Which “Lambsquarters plant response rating (0 to 100 scale)” value [1, 25] does the source give for `CCn1nc(C(C)(C)C)cc1C(=O)Nc1ccnc(C(=O)N2CC=CC2)c1` [Compound 282] here?
The value was 100.

What about the “Plant response rating, Lambsquarters” value [1, 26] of the same compound?
Its value is 100.

And the “Lambsquarters plant response rating” value [1, 27]?
Its value is 10.

What about the “Lambsquarters plant response rating” value [1, 28] of the same compound?
The value was 60.

And the “Morningglory plant response rating” value [2, 29]?
The value was 15.

What about the “Plant response rating, Morningglory” value [2, 30] of the same compound?
The value was 15.

What about the “Morningglory plant response rating” value [2, 31] of the same compound?
Its value is 40.

What about the “Morningglory plant response rating” value [2, 32] of the same compound?
The value was 10.

What about the “Barnyardgrass plant response rating” value [3, 29] of the same compound?
Its value is 40.

What about the “Plant response rating, Barnyardgrass” value [3, 30] of the same compound?
The value was 80.

And the “Barnyardgrass plant response rating” value [3, 31]?
The value was 75.

And the “Barnyardgrass plant response rating” value [3, 32]?
The value was 30.

And the “Rice plant response rating” value [4]?
The value was 20.

And the “Corn plant response rating (0 to 100 scale)” value [5, 25]?
The value was 0.

And the “Plant response rating, Corn” value [5, 26]?
Its value is 0.

What about the “Corn plant response rating” value [5, 27] of the same compound?
Its value is 10.

What about the “Corn plant response rating” value [5, 28] of the same compound?
The value was 20.

What about the “Cocklebur plant response rating (0 to 100 scale)” value [6, 25] of the same compound?
Its value is 0.

And the “Plant response rating, Cocklebur” value [6, 26]?
The value was 0.

And the “Cocklebur plant response rating” value [6, 27]?
Its value is 10.

And the “Cocklebur plant response rating” value [6, 28]?
The value was 20.

What about the “Rice plant response rating (0 to 100 scale)” value ([7]; 125 g ai/ha) of the same compound?
The value was 10.

What about the “Plant response rating, Rice” value ([7]; 500 g ai/ha, visual rating) of the same compound?
The value was 40.

What about the “Velvetleaf plant response rating (0 to 100 scale)” value [8, 25] of the same compound?
Its value is 10.

And the “Plant response rating, Velvetleaf” value [8, 26]?
The value was 30.

And the “Velvetleaf plant response rating” value [8, 27]?
The value was 10.

And the “Velvetleaf plant response rating” value [8, 28]?
Its value is 20.

And the “Sedge, Umbrella plant response rating” value [9]?
Its value is 0.

And the “Surinam Grass plant response rating (0 to 100 scale)” value [10, 25]?
Its value is 0.

And the “Plant response rating, Surinam Grass” value [10, 26]?
The value was 20.

What about the “Surinam Grass plant response rating” value [10, 27] of the same compound?
The value was 10.

And the “Surinam Grass plant response rating” value [10, 28]?
Its value is 10.

What about the “Pigweed plant response rating (0 to 100 scale)” value [11, 25] of the same compound?
The value was 100.

What about the “Plant response rating, Pigweed” value [11, 26] of the same compound?
Its value is 100.

And the “Pigweed plant response rating” value [11, 27]?
Its value is 20.

And the “Pigweed plant response rating” value [11, 28]?
Its value is 60.

And the “Crabgrass, Large plant response rating” value [12, 29]?
The value was 10.

What about the “Plant response rating, Crabgrass, Large” value [12, 30] of the same compound?
Its value is 25.

And the “Crabgrass, Large plant response rating” value [12, 31]?
Its value is 65.

And the “Crabgrass, Large plant response rating” value [12, 32]?
Its value is 40.

And the “Wheat plant response rating” value [13, 27]?
Its value is 30.

And the “Wheat plant response rating” value [13, 28]?
Its value is 30.

And the “Barnyardgrass plant response rating (0 to 100 scale)” value [14, 25]?
The value was 30.

What about the “Plant response rating, Barnyardgrass” value [14, 26] of the same compound?
Its value is 50.

And the “Barnyardgrass plant response rating” value [14, 27]?
The value was 0.

What about the “Barnyardgrass plant response rating” value [14, 28] of the same compound?
Its value is 20.

And the “Foxtail, Giant plant response rating (0 to 100 scale)” value [15, 25]?
Its value is 10.

And the “Plant response rating, Foxtail, Giant” value [15, 26]?
The value was 20.

And the “Foxtail, Giant plant response rating” value [15, 27]?
Its value is 20.

What about the “Foxtail, Giant plant response rating” value [15, 28] of the same compound?
Its value is 20.

And the “Blackgrass plant response rating” value [16, 27]?
The value was 20.

What about the “Blackgrass plant response rating” value [16, 28] of the same compound?
Its value is 30.

What about the “Morningglory plant response rating (0 to 100 scale)” value [17, 25] of the same compound?
The value was 0.

What about the “Plant response rating, Morningglory” value [17, 26] of the same compound?
Its value is 0.

And the “Morningglory plant response rating” value [17, 27]?
Its value is 10.

And the “Morningglory plant response rating” value [17, 28]?
The value was 20.

What about the “Velvetleaf plant response rating” value [18, 29] of the same compound?
Its value is 50.

What about the “Plant response rating, Velvetleaf” value [18, 30] of the same compound?
Its value is 50.

And the “Velvetleaf plant response rating” value [18, 31]?
The value was 45.

And the “Velvetleaf plant response rating” value [18, 32]?
Its value is 20.

What about the “Crabgrass, Large plant response rating (0 to 100 scale)” value [19, 25] of the same compound?
Its value is 10.

And the “Plant response rating, Crabgrass, Large” value [19, 26]?
Its value is 80.

And the “Crabgrass, Large plant response rating” value [19, 27]?
Its value is 10.

And the “Crabgrass, Large plant response rating” value [19, 28]?
The value was 10.

And the “Pigweed plant response rating” value [20, 29]?
The value was 75.

And the “Plant response rating, Pigweed” value [20, 30]?
Its value is 100.

What about the “Pigweed plant response rating” value [20, 31] of the same compound?
Its value is 90.

And the “Pigweed plant response rating” value [20, 32]?
The value was 90.

What about the “Ducksalad plant response rating” value [21] of the same compound?
The value was 80.

What about the “Foxtail, Giant plant response rating” value [22, 29] of the same compound?
The value was 20.

And the “Plant response rating, Foxtail, Giant” value [22, 30]?
The value was 25.

What about the “Foxtail, Giant plant response rating” value [22, 31] of the same compound?
The value was 40.

And the “Foxtail, Giant plant response rating” value [22, 32]?
Its value is 10.

And the “Barnyardgrass plant response rating” value [23]?
The value was 20.

And the “Oat, Wild plant response rating” value [24, 27]?
The value was 0.

What about the “Oat, Wild plant response rating” value [24, 28] of the same compound?
The value was 20.
